Measured values as given in US20080176907A1, “NOS Inhibitors For Treatment Of Motor Deficit Disorders” (Northwestern University, priority 2006, published 2008).

How the values were obtained:
[1] = effect of maternal administration on blood pressure and heart rate in E22 rabbit dams; assay type: in vivo, New Zealand white rabbit
Experimental: Because of the importance of eNOS to the regulation of cardiovascular activity, the effect of maternal administration of 4 and 5 on blood pressure in 22 day-gestation (E22) New Zealand white rabbit dams was determined. There was no effect on heart rate or on systolic or diastolic blood pressure by treatment with 4 or 5.

[2] = test system: hypoxia-ischemia of rabbit fetuses; assay: uterine ischemia, global hypoxia-ischemia of rabbit fetuses, neurobehavioral examination of P1 kits; settings: for number of normal postnatal P1 kits: compared to saline-treated dams; for protection against HI-fetal brain injury: comparison with 7-NI, p<0.05 Fisher's Exact Test; for permeability to the fetal brain: maternal administration
[3] = test system: total constitutive NOS activity (both nNOS and eNOS) in fetal brain homogenates; assay: NOS activity and NOx levels in fetal brain after maternal administration; assay type: in vivo; settings: E22 rabbit dams
Source text: The NOS activity assay in fetal brain homogenates assessed total constitutive NOS activity (i.e., both nNOS and eNOS). […] Therefore changes in NOS activity should correspond to changes in nNOS activity. […] The corresponding decrease in the NO concentration also indicated strong NOS inhibition had occurred.

[4] = Paudler and Blewitt, 1966; cited from earlier work
whole body ischemia = settings: in vivo; cited from earlier work
nNOS = nNOS (Rattus norvegicus, UniProt P29476); settings: read-out: Ki nNOS
iNOS = iNOS (Mus musculus, UniProt P29477); assay: biochemical
Sequence of iNOS (P29477 whole entry): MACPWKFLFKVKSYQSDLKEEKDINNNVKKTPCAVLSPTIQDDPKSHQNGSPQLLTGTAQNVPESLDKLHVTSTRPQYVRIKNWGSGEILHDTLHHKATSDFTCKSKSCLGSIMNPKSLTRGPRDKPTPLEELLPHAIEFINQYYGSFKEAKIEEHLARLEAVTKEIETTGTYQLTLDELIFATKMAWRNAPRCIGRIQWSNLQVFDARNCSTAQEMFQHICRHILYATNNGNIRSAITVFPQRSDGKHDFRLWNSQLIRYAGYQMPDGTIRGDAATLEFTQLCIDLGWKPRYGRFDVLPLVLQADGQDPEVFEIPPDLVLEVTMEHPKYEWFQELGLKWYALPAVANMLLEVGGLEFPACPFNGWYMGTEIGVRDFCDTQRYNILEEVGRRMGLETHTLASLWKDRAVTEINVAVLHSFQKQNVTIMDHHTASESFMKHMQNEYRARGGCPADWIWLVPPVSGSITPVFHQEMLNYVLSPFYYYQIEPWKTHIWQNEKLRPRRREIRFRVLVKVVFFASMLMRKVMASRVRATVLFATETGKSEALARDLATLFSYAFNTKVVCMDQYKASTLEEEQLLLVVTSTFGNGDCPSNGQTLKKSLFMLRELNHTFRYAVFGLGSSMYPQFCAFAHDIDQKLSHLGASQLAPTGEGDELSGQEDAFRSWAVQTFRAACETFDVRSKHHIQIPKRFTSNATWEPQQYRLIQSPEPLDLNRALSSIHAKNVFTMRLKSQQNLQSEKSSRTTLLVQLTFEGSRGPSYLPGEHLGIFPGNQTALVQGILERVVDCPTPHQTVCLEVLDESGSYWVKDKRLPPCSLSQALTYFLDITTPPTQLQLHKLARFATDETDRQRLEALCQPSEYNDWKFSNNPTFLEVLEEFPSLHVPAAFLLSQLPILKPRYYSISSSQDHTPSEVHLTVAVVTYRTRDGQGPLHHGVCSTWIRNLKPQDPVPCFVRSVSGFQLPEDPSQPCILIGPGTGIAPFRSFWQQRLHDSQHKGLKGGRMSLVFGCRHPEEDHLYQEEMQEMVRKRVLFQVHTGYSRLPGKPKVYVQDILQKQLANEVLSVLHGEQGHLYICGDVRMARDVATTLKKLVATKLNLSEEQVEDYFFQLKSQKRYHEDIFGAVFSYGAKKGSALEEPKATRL

Cc1cc(N)nc(C[C@H]2CNC[C@H]2NCCNCc2ccc(Cl)cc2)c1 (racemic) [(±)-4]
effect on heart rate [1]: no effect | effect on systolic or diastolic blood pressure [1]: no effect | incidence of fetal death (dead/total fetuses) ([2]; 0/49 is stated for either 4 or 5): 0/49 | Normal (number of kits) ([2]; Dose 75 ki × 2, Age 22): 9 | Severe (number of kits) ([2]; Dose 75 ki × 2, Age 22): 2 | Severe (number of kits) ([2]; Dose 75 ki × 2, Age 25): 2 | Normal (number of kits) ([2]; Dose 75 ki × 2, Age 29): 10 | number of normal postnatal P1 kits [2]: substantially larger number | protection against HI-fetal brain injury [2]: superior to 7-NI | fetal/neonatal deaths ([2]; inhibitor 30 min prior to and immediately after uterine ischemia): no deaths | permeability to the fetal brain [2]: permeable

Cc1cc(N)nc(C[C@H]2CNC[C@H]2NCCNCCc2cccc(F)c2)c1 (racemic) [(±)-5]
effect on heart rate [1]: no effect | effect on systolic or diastolic blood pressure [1]: no effect | NO concentration (NOx) in fetal brain ([3]; after maternal treatment): decrease | NOS activity in fetal brain ([3]; shortly after acute maternal treatment): NOS inhibition was observed | effect when administered post-ischemia ([2]; administered post-ischemia): no effect | number of normal postnatal P1 kits [2]: substantially larger number | protection against HI-fetal brain injury [2]: superior to 7-NI | permeability to the fetal brain [2]: permeable | fetal/neonatal deaths ([2]; rabbit, in vivo): no deaths | incidence of fetal death (dead/total fetuses) ([2]; rabbit, in vivo): 0/49

Cc1cc(N)nc(C[C@H]2CNC[C@H]2NCCNCCc2ccccc2)c1 (relative stereo) [JI-6]
Normal (number of kits) ([2]; Dose 200 ki × 2, Age 22): 9

Cc1cc(C)nc(N)c1 [2-amino-4,6-dimethylpyridine]
pKa [4]: 7.12

O=[N+]([O-])c1cccc2cn[nH]c12 [7-NI, 7-nitroindazole, reference compound]
incidence of fetal death (dead/total fetuses) ([2]; rabbit, in vivo): 10/38 | incidence of fetal death (stillborn) ([2]; rabbit, in vivo): 26%

FC(F)(F)c1ccccc1-n1ccnc1 [TRIM]
outcome following whole body ischemia (whole body ischemia): worse outcome

N=C(NCCC[C@H](N)C(=O)N[C@H]1CN[C@H](C(N)=O)C1)N[N+](=O)[O-] [compound 3]
Ki (nNOS): 0.1 µM | Ki (iNOS): 29 µM

N=C(NCCC[C@H](N)C(=O)O)N[N+](=O)[O-] [εNNA, L-N^ω-nitroarginine]
Ki (iNOS): 4.55 µM
